Data taken from patent US9011589B2, “Magenta dyes and their preparation methods and applications” (Dalian University of Technology, priority 2012, dated 2015).

Key:
Assay type in all cases: physicochemical
[1] = Gas (ozone) resistance of the printed images; settings: grade of color difference ΔE; 40 ppm ozone, 60% RH, 24° C., 6 h
From the text: Prepare the ink composition according to the formula described in Table 1 containing the products obtained in the above embodiment as the magenta colorant, and filter the ink composition with a […] membrane filter to obtain the aqueous magenta ink composition of the present invention. Add triethanolamine to adjust the ink composition pH to 8˜10 and add deionized water to make the total volume to reach 100 parts by weight. Use an ink-jet printer (Epson 270 manufactured by Epson Company), glossy photo paper (Epson) and the above described ink compositions for ink-jet printing. Place the printed images in the Ozone Weathering Test Chamber (manufactured by China Surui Company) at 40 ppm ozone, 60% RH and 24° C. for 6 h. Calculate the color difference (ΔE) before and after the test in the same manner as described in (1) above and evaluate it in 3 grades based on the following benchmark: [table]

[2] = Evaluation of water solubility of the dye; settings: solubility of the dye in water
From the text: (D) Evaluation of Water Solubility of the Dye (g/100 g Water)

[3] = Evaluation of long-term stability of the dye in aqueous solvent systems; parameters: key: ∘: No precipitation; Δ: Slight precipitation; x: Notable; settings: 20 parts dye, 70 parts water, 10 parts ethylene glycol; 50° C. 7 d, then 0° C. 7 d; precipitation on filtering
Description: Heat and dissolve the system consisting of 20 parts of dyes, 70 parts of water and 10 parts of ethylene glycol; after the solution cools down, store it airtight at a constant temperature of 50° C. for 7 d; cool it to 0° C. and store it at the same temperature for 7 d; filter the solution and evaluate it in 3 grades based on the following benchmark: […]

[4] = Light resistance test of printed images with xenon lamp; settings: grade of color difference ΔE; ink with 6 parts dye on glossy photo paper; xenon lamp 0.36 W/m^2, 60% RH, 24° C., 50 h
From the text: Prepare the ink composition according to the formula described in Table 1 containing the products obtained in the above embodiment as the magenta colorant, and filter the ink composition with a […] membrane filter to obtain the aqueous magenta ink composition of the present invention. Add triethanolamine to adjust the ink composition pH to 8˜10 and add deionized water to make the total volume to reach 100 parts by weight.
Use an ink-jet printer (Epson 270 manufactured by Epson Company), glossy photo paper (Epson) and the above described ink compositions for ink-jet printing.
Irradiate the printed glossy photo paper manufactured by Canon and Epson with Xenon-lamp Weathering Test Chamber ZG-P (manufactured by China Surui Company) at 60% RH and 24° C. with illuminance of 0.36 W/m^2 for 50 h, and check the color difference (ΔE) before and after the test. The color difference (ΔE) is calculated from the differences of values of L*, a*, b* before and after the test in the above described color measurement system (Unterlab) by the followings formula: ΔE=((difference of L*)^2+(difference of a*)^2+(difference of b*)^2)^1/2.
Three grades will be divided for the evaluation based on the following benchmark: […]

Row | Ozone resistance of printed images [1] | Long-term stability of the dye in aqueous solvent systems [3] | UV resistance of printed images [4] | Structure (SMILES) | Water solubility of the dye [2]
1 | ∘ (ΔE < 10) | ∘ | ∘ (ΔE < 10) | O=C([O-])CCCS(=O)(=O)c1cc(S(=O)(=O)[O-])c(Nc2cc(S(=O)(=O)[O-])c3[nH]c(=O)c(C(=O)OCc4cccc5ccccc45)c4c3c2C(=O)c2ccccc2-4)c(S(=O)(=O)[O-])c1.[Na+].[Na+].[Na+].[Na+] [Dp17] | Δ (The solubility of the dye in water >15-20)
2 | x (ΔE > 20) | Δ | x (ΔE > 20) | O=C(Nc1cc(S(=O)(=O)[O-])cc2cc(S(=O)(=O)[O-])c(N=Nc3ccc4cc(S(=O)(=O)CCOS(=O)(=O)[O-])ccc4c3S(=O)(=O)[O-])c(O)c12)c1ccccc1.[Na+].[Na+].[Na+].[Na+] [C.I. reactive red 180, reference compound] | 
3 | ∘ (ΔE < 10) | ∘ | ∘ (ΔE < 10) | O=C([O-])CCCS(=O)(=O)c1cc(S(=O)(=O)[O-])c(Nc2cc(S(=O)(=O)[O-])c3[nH]c(=O)c(C(=O)[O-])c4c3c2C(=O)c2ccccc2-4)c(S(=O)(=O)[O-])c1.[Na+].[Na+].[Na+].[Na+].[Na+] [Dp2] | ∘ (The solubility of the dye in water >30)
4 | x (ΔE > 20) | Δ | x (ΔE > 20) | O=S(=O)([O-])c1cc(Nc2nc(Nc3ccc(/C=C/c4ccc(Nc5nc(Nc6cc(S(=O)(=O)[O-])cc7cc(S(=O)(=O)[O-])c(N=Nc8ccccc8)c(O)c67)nc(N6CCOCC6)n5)cc4S(=O)(=O)[O-])c(S(=O)(=O)[O-])c3)nc(N3CCOCC3)n2)c2c(O)c(N=Nc3ccccc3)c(S(=O)(=O)[O-])cc2c1.[Na+].[Na+].[Na+].[Na+].[Na+].[Na+] [C.I. direct red 227, reference compound] | x (The solubility of the dye in water <15)
5 | ∘ (ΔE < 10) | ∘ | ∘ (ΔE < 10) | O=C([O-])CCCS(=O)(=O)c1ccc(S(=O)(=O)[O-])c(Nc2cc(S(=O)(=O)[O-])c3[nH]c(=O)c(C(=O)OCc4cccc([N+](=O)[O-])c4)c4c3c2C(=O)c2ccccc2-4)c1.[Na+].[Na+].[Na+] [Dm7] | ∘ (The solubility of the dye in water >30)
6 | ∘ (ΔE < 10) | Δ | ∘ (ΔE < 10) | Cn1c(=O)c(C(=O)OCc2cccc3ccccc23)c2c3c(c(Nc4ccc(S(=O)(=O)[O-])cc4S(=O)(=O)[O-])ccc31)C(=O)c1ccccc1-2.[Na+].[Na+] [Dye2, reference compound] | Δ (The solubility of the dye in water >15-20)
7 | ∘ (ΔE < 10) | ∘ | ∘ (ΔE < 10) | Cc1ccc(COC(=O)c2c3c4c(c(Nc5cc(S(=O)(=O)CCCC(=O)[O-])ccc5S(=O)(=O)[O-])cc(S(=O)(=O)[O-])c4[nH]c2=O)C(=O)c2ccccc2-3)cc1.[Na+].[Na+].[Na+] [Dm5] | ∘ (The solubility of the dye in water >30)
8 | ∘ (ΔE < 10) | ∘ | ∘ (ΔE < 10) | O=C([O-])CCCS(=O)(=O)c1cc(S(=O)(=O)[O-])c(Nc2cc(S(=O)(=O)[O-])c3[nH]c(=O)c(C(=O)OCc4ccccc4)c4c3c2C(=O)c2ccccc2-4)c(S(=O)(=O)[O-])c1.[Na+].[Na+].[Na+].[Na+] [Dp4] | ∘ (The solubility of the dye in water >30)
9 | ∘ (ΔE < 10) | ∘ | ∘ (ΔE < 10) | O=C([O-])CCCS(=O)(=O)c1ccc(S(=O)(=O)[O-])c(Nc2cc(S(=O)(=O)[O-])c3[nH]c(=O)c(C(=O)OCc4ccccc4)c4c3c2C(=O)c2ccccc2-4)c1.[Na+].[Na+].[Na+] [Dm3] | ∘ (The solubility of the dye in water >30)
10 | ∘ (ΔE < 10) | ∘ | ∘ (ΔE < 10) | O=C([O-])CCCS(=O)(=O)c1cc(S(=O)(=O)[O-])c(Nc2cc(S(=O)(=O)[O-])c3[nH]c(=O)c(C(=O)OCc4cccc(S(=O)(=O)[O-])c4)c4c3c2C(=O)c2ccccc2-4)c(S(=O)(=O)[O-])c1.[Na+].[Na+].[Na+].[Na+].[Na+] [Dp14] | ∘ (The solubility of the dye in water >30)
11 | ∘ (ΔE < 10) | ∘ | ∘ (ΔE < 10) | O=C([O-])CCCS(=O)(=O)c1cc(S(=O)(=O)[O-])c(Nc2cc(S(=O)(=O)[O-])c3[nH]c(=O)c(C(=O)OCc4cccc(Cl)c4)c4c3c2C(=O)c2ccccc2-4)c(S(=O)(=O)[O-])c1.[Na+].[Na+].[Na+].[Na+] [Dp10] | ∘ (The solubility of the dye in water >30)

Row | Structure (SMILES) | Ozone resistance of printed images [1] | Long-term stability of the dye in aqueous solvent systems [3] | UV resistance of printed images [4] | Water solubility of the dye [2]
12 | O=C([O-])CCCS(=O)(=O)c1ccc(S(=O)(=O)[O-])c(Nc2cc(S(=O)(=O)[O-])c3[nH]c(=O)c(C(=O)[O-])c4c3c2C(=O)c2ccccc2-4)c1.[Na+].[Na+].[Na+].[Na+] [Dm1] | ∘ (ΔE < 10) | ∘ | ∘ (ΔE < 10) | ∘ (The solubility of the dye in water >30)
